From US10485235B2, “Aryloxypyrimidinyl ethers as herbicides” (FMC Corporation, priority 2015, dated 2019)

What was measured:
Assay type in all cases: in vivo
[1] = system: barnyardgrass (Echinochloa crus-galli); test: Test A preemergence, barnyardgrass; details: Preemergence, 0 to 100 scale (0 no effect, 100 complete control)
From the text: (§1) Seeds of plant species selected from barnyardgrass (Echinochloa crus-galli), kochia (Kochia scoparia), ragweed (common ragweed, Ambrosia elatior), ryegrass, Italian (Italian ryegrass, Lolium multiflorum), foxtail, giant (giant foxtail, Setaria faberii), and pigweed (Amaranthus retroflexus), were planted into a blend of loam soil and sand and treated preemergence with a directed soil spray using test chemicals formulated in a non-phytotoxic solvent mixture which included a surfactant.
(§2) At the same time, plants selected from these weed species and also wheat (Triticum aestivum), corn (Zea mays), blackgrass (Alopecurus myosuroides), and galium (catchweed bedstraw, Galium aparine), were planted in pots containing the same blend of loam soil and sand and treated with postemergence applications of test chemicals formulated in the same manner. Plants ranged in height from 2 to 10 cm and were in the one- to two-leaf stage for the postemergence treatment. Treated plants and untreated controls were maintained in a greenhouse for approximately 10 days, after which time all treated plants were compared to untreated controls and visually evaluated for injury. Plant response ratings, summarized in Table A, are based on a 0 to 100 scale where 0 is no effect and 100 is complete control. A dash (—) response means no test result.

[2] = system: pigweed (Amaranthus retroflexus); test: Test A postemergence, pigweed; details: postemergence, 0 to 100 scale, 0 is no effect, 100 is complete control, approximately 10 days
From the text: as §1, §2

[3] = system: barnyardgrass (Echinochloa crus-galli); test: Test B flooded paddy test, barnyardgrass; details: 250 g ai/ha, Flood; visual rating after 13 to 15 days; scale 0 to 100, 0 is no effect, 100 is complete control
Method: (§3) Plant species in the flooded paddy test selected from rice (Oryza sativa), sedge, umbrella (small-flower umbrella sedge, Cyperus difformis), ducksalad (Heteranthera limosa), and barnyardgrass (Echinochloa crus-galli) were grown to the 2-leaf stage for testing. At time of treatment, test pots were flooded to 3 cm above the soil surface, treated by application of test compounds directly to the paddy water, and then maintained at that water depth for the duration of the test. Treated plants and controls were maintained in a greenhouse for 13 to 15 days, after which time all species were compared to controls and visually evaluated. Plant response ratings, summarized in Table B, are based on a scale of 0 to 100 where 0 is no effect and 100 is complete control. A dash (—) response means no test result.

[4] = system: ragweed (common ragweed, Ambrosia elatior); test: Test A postemergence, ragweed; details: postemergence, 0 to 100 scale, 0 is no effect, 100 is complete control, approximately 10 days
From the text: as §1, §2

[5] = system: pigweed (Amaranthus retroflexus); test: Test A preemergence, pigweed; details: Preemergence, 0 to 100 scale (0 no effect, 100 complete control)
From the text: as §1, §2

[6] = system: ryegrass, Italian (Italian ryegrass, Lolium multiflorum); test: Test A postemergence, Italian ryegrass; details: postemergence, 0 to 100 scale, 0 is no effect, 100 is complete control, approximately 10 days
From the text: as §1, §2

[7] = system: kochia (Kochia scoparia); test: Test A postemergence, kochia; details: postemergence, 0 to 100 scale, 0 is no effect, 100 is complete control, approximately 10 days
From the text: as §1, §2

[8] = system: barnyardgrass (Echinochloa crus-galli); test: Test A postemergence, barnyardgrass; details: postemergence, 0 to 100 scale, 0 is no effect, 100 is complete control, approximately 10 days
From the text: as §1, §2

[9] = system: galium (catchweed bedstraw, Galium aparine); test: Test A postemergence, galium; details: postemergence, 0 to 100 scale, 0 is no effect, 100 is complete control, approximately 10 days
From the text: as §1, §2

[10] = system: blackgrass (Alopecurus myosuroides); test: Test A postemergence, blackgrass; details: postemergence, 0 to 100 scale, 0 is no effect, 100 is complete control, approximately 10 days
From the text: as §1, §2

[11] = system: corn (Zea mays); test: Test A postemergence, corn; details: postemergence, 0 to 100 scale, 0 is no effect, 100 is complete control, approximately 10 days
From the text: as §1, §2

[12] = system: foxtail, giant (giant foxtail, Setaria faberii); test: Test A preemergence, giant foxtail; details: Preemergence, 0 to 100 scale (0 no effect, 100 complete control)
From the text: as §1, §2

[13] = system: ragweed (common ragweed, Ambrosia elatior); test: Test A preemergence, ragweed; details: Preemergence, 0 to 100 scale (0 no effect, 100 complete control)
From the text: as §1, §2

[14] = system: ryegrass, Italian (Italian ryegrass, Lolium multiflorum); test: Test A preemergence, Italian ryegrass; details: Preemergence, 0 to 100 scale (0 no effect, 100 complete control)
From the text: as §1, §2

[15] = system: sedge, umbrella (small-flower umbrella sedge, Cyperus difformis); test: Test B flooded paddy test, umbrella sedge; details: 250 g ai/ha, Flood; visual rating after 13 to 15 days; scale 0 to 100, 0 is no effect, 100 is complete control
Method: as §3

[16] = system: wheat (Triticum aestivum); test: Test A postemergence, wheat; details: postemergence, 0 to 100 scale, 0 is no effect, 100 is complete control, approximately 10 days
From the text: as §1, §2

[17] = system: foxtail, giant (giant foxtail, Setaria faberii); test: Test A postemergence, giant foxtail; details: postemergence, 0 to 100 scale, 0 is no effect, 100 is complete control, approximately 10 days
From the text: as §1, §2

[18] = system: rice (Oryza sativa); test: Test B flooded paddy test, rice; details: 250 g ai/ha, Flood; visual rating after 13 to 15 days; scale 0 to 100, 0 is no effect, 100 is complete control
Method: as §3

[19] = system: kochia (Kochia scoparia); test: Test A preemergence, kochia; details: Preemergence, 0 to 100 scale (0 no effect, 100 complete control)
From the text: as §1, §2

[20] = system: ducksalad (Heteranthera limosa); test: Test B flooded paddy test, ducksalad; details: 250 g ai/ha, Flood; visual rating after 13 to 15 days; scale 0 to 100, 0 is no effect, 100 is complete control
Method: as §3

SMILES | Plant response rating, Barnyardgrass ([1]; 125 g ai/ha) | Plant response rating, Barnyardgrass ([1]; 500 g ai/ha) | Plant response rating, Pigweed ([2]; 125 g ai/ha) | Plant response rating, Pigweed ([2]; 500 g ai/ha) | Plant response rating, Barnyardgrass [3] | Plant response rating, Ragweed ([4]; 125 g ai/ha) | Plant response rating, Ragweed ([4]; 500 g ai/ha) | Plant response rating, Pigweed ([5]; 125 g ai/ha) | Plant response rating, Pigweed ([5]; 500 g ai/ha) | Plant response rating, Ryegrass, Italian ([6]; 125 g ai/ha) | Plant response rating, Ryegrass, Italian ([6]; 500 g ai/ha) | Plant response rating, Kochia ([7]; 125 g ai/ha) | Plant response rating, Kochia ([7]; 500 g ai/ha) | Plant response rating, Barnyardgrass ([8]; 125 g ai/ha) | Plant response rating, Barnyardgrass ([8]; 500 g ai/ha) | Plant response rating, Galium ([9]; 125 g ai/ha) | Plant response rating, Galium ([9]; 500 g ai/ha) | Plant response rating, Blackgrass ([10]; 125 g ai/ha) | Plant response rating, Blackgrass ([10]; 500 g ai/ha) | Plant response rating, Corn ([11]; 125 g ai/ha) | further results
CC(C)CCCOc1c(Br)cccc1Oc1ncc(Cl)cn1 [Compound 11] | 20 | 90 | 60 | 100 | 0 | 0 | 0 | 0 | 80 | 0 | 20 | 20 | 90 | 10 | 90 | 70 | 100 | 0 | 40 | 30 | Plant response rating, Corn ([11]; 500 g ai/ha): 30; Plant response rating, Foxtail, Giant ([12]; 125 g ai/ha): 90; Plant response rating, Foxtail, Giant ([12]; 500 g ai/ha): 100; Plant response rating, Ragweed ([13]; 125 g ai/ha): 0; Plant response rating, Ragweed ([13]; 500 g ai/ha): 0; Plant response rating, Ryegrass, Italian ([14]; 125 g ai/ha): 0; Plant response rating, Ryegrass, Italian ([14]; 500 g ai/ha): 30; Plant response rating, Sedge, Umbrella [15]: 0; Plant response rating, Wheat ([16]; 125 g ai/ha): 0; Plant response rating, Wheat ([16]; 500 g ai/ha): 20; Plant response rating, Foxtail, Giant ([17]; 125 g ai/ha): 20; Plant response rating, Foxtail, Giant ([17]; 500 g ai/ha): 60; Plant response rating, Rice [18]: 0; Plant response rating, Kochia ([19]; 125 g ai/ha): 0; Plant response rating, Kochia ([19]; 500 g ai/ha): 0; Plant response rating, Ducksalad [20]: 0
CC(C)CCOc1c(Br)cccc1Oc1ncc(Cl)cn1 [Compound 12] | 70 | 100 | 70 | 100 | 0 | 10 | 20 | 40 | 100 | 0 | 30 | 90 | 100 | 10 | 100 | 70 | 100 | 20 | 60 | 30 | Plant response rating, Corn ([11]; 500 g ai/ha): 30; Plant response rating, Foxtail, Giant ([12]; 125 g ai/ha): 90; Plant response rating, Foxtail, Giant ([12]; 500 g ai/ha): 100; Plant response rating, Ragweed ([13]; 125 g ai/ha): 0; Plant response rating, Ragweed ([13]; 500 g ai/ha): 0; Plant response rating, Ryegrass, Italian ([14]; 125 g ai/ha): 0; Plant response rating, Ryegrass, Italian ([14]; 500 g ai/ha): 40; Plant response rating, Sedge, Umbrella [15]: 0; Plant response rating, Wheat ([16]; 125 g ai/ha): 0; Plant response rating, Wheat ([16]; 500 g ai/ha): 20; Plant response rating, Foxtail, Giant ([17]; 125 g ai/ha): 10; Plant response rating, Foxtail, Giant ([17]; 500 g ai/ha): 100; Plant response rating, Rice [18]: 0; Plant response rating, Kochia ([19]; 125 g ai/ha): 0; Plant response rating, Kochia ([19]; 500 g ai/ha): 70; Plant response rating, Ducksalad [20]: 0
N#Cc1cccc(Oc2ncc(Cl)cn2)c1OCC(F)(F)C(F)F [Compound 14] | 90 | 100 | 100 | 100 | 0 | 10 | 20 | 100 | 100 | 10 | 50 | 100 | 100 | 80 | 100 | 50 | 100 | 60 | 90 | 20 | Plant response rating, Corn ([11]; 500 g ai/ha): 50; Plant response rating, Foxtail, Giant ([12]; 125 g ai/ha): 100; Plant response rating, Foxtail, Giant ([12]; 500 g ai/ha): 100; Plant response rating, Ragweed ([13]; 125 g ai/ha): 0; Plant response rating, Ragweed ([13]; 500 g ai/ha): 0; Plant response rating, Ryegrass, Italian ([14]; 125 g ai/ha): 10; Plant response rating, Ryegrass, Italian ([14]; 500 g ai/ha): 70; Plant response rating, Sedge, Umbrella [15]: 0; Plant response rating, Wheat ([16]; 125 g ai/ha): 20; Plant response rating, Wheat ([16]; 500 g ai/ha): 40; Plant response rating, Foxtail, Giant ([17]; 125 g ai/ha): 80; Plant response rating, Foxtail, Giant ([17]; 500 g ai/ha): 100; Plant response rating, Rice [18]: 0; Plant response rating, Kochia ([19]; 125 g ai/ha): 90; Plant response rating, Kochia ([19]; 500 g ai/ha): 100; Plant response rating, Ducksalad [20]: 0
N#Cc1cccc(Oc2ncc(Cl)cn2)c1OCC(F)F [Compound 16] | 80 | 100 | 90 | 100 | 0 | 10 | 60 | 100 | 100 | 0 | 80 | 100 | 100 | 20 | 90 | 30 | 90 | 10 | 90 | 20 | Plant response rating, Corn ([11]; 500 g ai/ha): 70; Plant response rating, Foxtail, Giant ([12]; 125 g ai/ha): 100; Plant response rating, Foxtail, Giant ([12]; 500 g ai/ha): 100; Plant response rating, Ragweed ([13]; 125 g ai/ha): 60; Plant response rating, Ragweed ([13]; 500 g ai/ha): 90; Plant response rating, Ryegrass, Italian ([14]; 125 g ai/ha): 10; Plant response rating, Ryegrass, Italian ([14]; 500 g ai/ha): 40; Plant response rating, Sedge, Umbrella [15]: 0; Plant response rating, Wheat ([16]; 125 g ai/ha): 0; Plant response rating, Wheat ([16]; 500 g ai/ha): 20; Plant response rating, Foxtail, Giant ([17]; 125 g ai/ha): 30; Plant response rating, Foxtail, Giant ([17]; 500 g ai/ha): 100; Plant response rating, Rice [18]: 0; Plant response rating, Kochia ([19]; 125 g ai/ha): 100; Plant response rating, Kochia ([19]; 500 g ai/ha): 100; Plant response rating, Ducksalad [20]: 30
FC(F)COc1c(Br)cccc1Oc1ncc(Cl)cn1 [Compound 17] | 80 | 100 | 100 | 100 | 0 | 0 | 40 | 100 | 100 | 0 | 70 | 100 | 100 | 20 | 90 | 30 | 80 | 10 | 90 | 20 | Plant response rating, Corn ([11]; 500 g ai/ha): 50; Plant response rating, Foxtail, Giant ([12]; 125 g ai/ha): 100; Plant response rating, Foxtail, Giant ([12]; 500 g ai/ha): 100; Plant response rating, Ragweed ([13]; 125 g ai/ha): 0; Plant response rating, Ragweed ([13]; 500 g ai/ha): 30; Plant response rating, Ryegrass, Italian ([14]; 125 g ai/ha): 10; Plant response rating, Ryegrass, Italian ([14]; 500 g ai/ha): 70; Plant response rating, Sedge, Umbrella [15]: 80; Plant response rating, Wheat ([16]; 125 g ai/ha): 0; Plant response rating, Wheat ([16]; 500 g ai/ha): 20; Plant response rating, Foxtail, Giant ([17]; 125 g ai/ha): 40; Plant response rating, Foxtail, Giant ([17]; 500 g ai/ha): 100; Plant response rating, Rice [18]: 0; Plant response rating, Kochia ([19]; 125 g ai/ha): 90; Plant response rating, Kochia ([19]; 500 g ai/ha): 100; Plant response rating, Ducksalad [20]: 85
